Data reported in US20110294721A1, “ANTIMICROBIAL PEPTIDES” (priority 2008, published 2011).
“And” between values parts separate entries of the source, which are not always exact repeats. Identical values can stand only once. No end group written: not given here.

Tests used:
[1] = tested on: Pectobacterium carotovorum; assay: MIC and lethal concentration (LC) assay (Example 3); type: cell-based; conditions: Table 2; for LC (lethal concentration): 100% inhibition after at least 4 days of incubation; for MIC: >90% inhibition, 1-2 days at 25° C.
Method: (§1) In-vitro inhibition assays were performed in sterile flat-bottom 96-well plates (Greiner bio-one, Frickenhausen). Antimicrobial peptides were dissolved in 0.01% acetic acid containing 0.2% BSA (500 μg/ml), filter sterilized and stored at −20° C. For inhibition assays dilutions of peptides ranging from 5 to 200 μg/ml were prepared and 10 μl (antibacterial assay) or 20 μl (antifungal assay) of each concentration was loaded per well.
(§2) Bacteria colonies from overnight agar plate cultures were resuspended into 5 ml LB-medium or HPG-medium (OD600 nm=0.08-0.1) and diluted into LB-medium/HPG-medium (1:100). 90 μl of this suspension containing about 10^5-10^6 CFU/ml of tested bacteria were added to each well resulting in final peptide concentrations of 0, 0.5, 1, 2, 5, 10, and 20 μg/ml. […] The lowest concentration, in which there is no observable growth (>90% inhibition) is referred to as minimal inhibitory concentration (MIC). […] For each peptide concentration two identical inhibition assays were performed.

[2] = tested on: Pseudomonas syringae pv. syringae; assay: as above; type: cell-based; conditions: Table 2; for LC (lethal concentration): 100% inhibition after at least 4 days of incubation; for MIC: >90% inhibition, 1-2 days at 25° C.
Method: as §1, §2

[3] = tested on: Pseudomonas syringae pv. tomato; assay: as above; type: cell-based; conditions: Table 2; for LC (lethal concentration): 100% inhibition after at least 4 days of incubation; for MIC: >90% inhibition, 1-2 days at 25° C.
Method: as §1, §2

[4] = tested on: Clavibacter michiganensis; assay: as above; type: cell-based; conditions: Table 2; for LC (lethal concentration): 100% inhibition after at least 4 days of incubation; for MIC: >90% inhibition, 1-2 days at 25° C.
Method: as §1, §2

Xanthomonas vesicatoria [5] = assay: as above; type: cell-based; conditions: Table 2; for LC (lethal concentration): 100% inhibition after at least 4 days of incubation; for MIC: >90% inhibition, 1-2 days at 25° C.
Method: as §1, §2

Pseudomonas corrugata [6] = conditions: Table 2; for LC (lethal concentration): 100% inhibition after at least 4 days of incubation; for MIC: >90% inhibition, 1-2 days at 25° C.
Method: as §1, §2

[7] = tested on: Pseudomonas syringae pv. tomato; conditions: complete inhibition of bacterial growth; overnight 25° C.; Table 1
[8] = tested on: Pectobacterium carotovorum sub. carotovorum; conditions: complete inhibition of bacterial growth; overnight 25° C.; Table 1
Pseudomonas corrugata [9] = conditions: complete inhibition of bacterial growth; overnight 25° C.; Table 1
Botrytis cinerea = assay: MIC in-vitro inhibition assay, antifungal (Example 2); type: cell-based; conditions: complete inhibition of spore germination/mycelial growth; Table 1
Method: as §1
(§3) Spores of fungi were collected by water washes of sporulating cultures grown on 2% malt extract agar and spore concentration was determined by microscopy. The concentration of the spores was adjusted to 1.5-2×10^3 spores/ml in 2% malt extract medium and 80 μl of fungal spores were added per well. The final peptide concentrations used in the fungal inhibition assays were 0, 2, 4, 10, 20, 40, and 100 μg/ml. After overnight incubation at room temperature the plate were put on a rotary shaker (300 rpm) for further two days to ensure consistantly growth. Antifungal effects of the peptides were determined by a microplate reader (Altemaria, Fusarium) at OD590 nm or by visual screening of the plates (Bottytis, Cladosporium).
(§4) The lowest peptide concentration leading to complete inhibition of bacterial growth or spore germination/mycelial growth (minimal inhibition concentration, MIC) was determined for each organism-peptide combination. For each peptide concentration two identical inhibition assays were performed.

Alternaria alternata = assay: as above; type: cell-based; conditions: complete inhibition of spore germination/mycelial growth; Table 1
Method: as §1, §3, §4

Cladosporium herbarum = assay: as above; type: cell-based; conditions: complete inhibition of spore germination/mycelial growth; Table 1
Method: as §1, §3, §4

Xanthomonas vesicatoria [10] = conditions: complete inhibition of bacterial growth; overnight 25° C.; Table 1
[11] = tested on: Pseudomonas syringae pv. syringae; conditions: complete inhibition of bacterial growth; overnight 25° C.; Table 1

KRRLFLFRLFRLFLRLFLKK-NH2 [SP13-12]
LC (lethal concentration) [1]: >10/>10 μg/ml
MIC [1]: >10/>10 μg/ml
LC (lethal concentration) [2]: >10/>10 μg/ml
MIC [2]: >10/>10 μg/ml
LC (lethal concentration) [3]: > 10 µg/mL
MIC [3]: 5.0 µg/mL
LC (lethal concentration) [4]: 5.0 µg/mL
MIC [4]: 2.5 µg/mL
LC (lethal concentration) (Xanthomonas vesicatoria [5]): 5.0 µg/mL
MIC (Xanthomonas vesicatoria [5]): 2.5 µg/mL
LC (lethal concentration) (Pseudomonas corrugata [6]): 10/>10 μg/ml
MIC (Pseudomonas corrugata [6]): 10/>10 μg/ml

KRRKLIKILKLIAKLIRKKR-NH2 [SP13-7]
LC (lethal concentration) [1]: >10/>10 μg/ml
MIC [1]: >10/>10 μg/ml
LC (lethal concentration) [2]: >10/>10 μg/ml
MIC [2]: >10/>10 μg/ml
LC (lethal concentration) [3]: 10/>10 μg/ml
MIC [3]: 10/>10 μg/ml
LC (lethal concentration) [4]: 0.5 µg/mL
MIC [4]: 0.25 µg/mL
LC (lethal concentration) (Xanthomonas vesicatoria [5]): 0.25 µg/mL
MIC (Xanthomonas vesicatoria [5]): 0.1 µg/mL
LC (lethal concentration) (Pseudomonas corrugata [6]): 2.5 µg/mL
MIC (Pseudomonas corrugata [6]): 0.5 µg/mL

KRRILIRILKLIIKLILKKR-NH2 [SP13-5]
LC (lethal concentration) [1]: >10/>10 μg/ml
MIC [1]: >10/>10 μg/ml
LC (lethal concentration) [2]: >10/>10 μg/ml
MIC [2]: >10/>10 μg/ml
LC (lethal concentration) [3]: 5.0 µg/mL
MIC [3]: 2.5 µg/mL
LC (lethal concentration) [4]: > 10 µg/mL
MIC [4]: 2.5 µg/mL
LC (lethal concentration) (Xanthomonas vesicatoria [5]): 5.0 µg/mL
MIC (Xanthomonas vesicatoria [5]): 1.0 µg/mL
LC (lethal concentration) (Pseudomonas corrugata [6]): 10/>10 μg/ml
MIC (Pseudomonas corrugata [6]): 10/>10 μg/ml

KRKLIFLAAFLAALALFKKR-NH2 [SP15]
Minimal inhibition concentration (MIC) [7]: 40 µg/mL
Minimal inhibition concentration (MIC) [8]: >40 µg/mL
Minimal inhibition concentration (MIC) (Pseudomonas corrugata [9]): >40 µg/mL
Minimal inhibition concentration (MIC) (Botrytis cinerea): >100 µg/mL
Minimal inhibition concentration (MIC) (Alternaria alternata): >100 µg/mL
Minimal inhibition concentration (MIC) (Cladosporium herbarum): 40 µg/mL
Minimal inhibition concentration (MIC) (Xanthomonas vesicatoria [10]): 20 µg/mL
Minimal inhibition concentration (MIC) [11]: >40 µg/mL

KRRKAIKILKLIAKLIRKKR-NH2 [SP13-8]
LC (lethal concentration) [1]: >10/>10 μg/ml
MIC [1]: >10/>10 μg/ml
LC (lethal concentration) [2]: >10/>10 μg/ml
MIC [2]: >10/>10 μg/ml
LC (lethal concentration) [3]: 10/>10 μg/ml
MIC [3]: 10/>10 μg/ml
LC (lethal concentration) [4]: 0.25 µg/mL
MIC [4]: 0.1 µg/mL
LC (lethal concentration) (Xanthomonas vesicatoria [5]): 0.5 µg/mL
MIC (Xanthomonas vesicatoria [5]): 0.1 µg/mL
LC (lethal concentration) (Pseudomonas corrugata [6]): 0.5 µg/mL
MIC (Pseudomonas corrugata [6]): 0.25 µg/mL

KRRLIFRILKLFFRFLVKKR-NH2 [SP13-4]
LC (lethal concentration) [1]: >10/>10 μg/ml
MIC [1]: >10/>10 μg/ml
LC (lethal concentration) [2]: 10/>10 μg/ml
MIC [2]: 10/>10 μg/ml
LC (lethal concentration) [3]: >10/>10 μg/ml
MIC [3]: >10/>10 μg/ml
LC (lethal concentration) [4]: 2.5 µg/mL
MIC [4]: 1.0 µg/mL
LC (lethal concentration) (Xanthomonas vesicatoria [5]): 2.5/2.5 μg/ml
MIC (Xanthomonas vesicatoria [5]): 2.5/2.5 μg/ml
LC (lethal concentration) (Pseudomonas corrugata [6]): > 10 µg/mL
MIC (Pseudomonas corrugata [6]): 5.0 µg/mL

KRRLALFRAFRLALKSVLKK-NH2 [SP13-10]
LC (lethal concentration) [1]: >10/>10 μg/ml
MIC [1]: >10/>10 μg/ml
LC (lethal concentration) [2]: >10/>10 μg/ml
MIC [2]: >10/>10 μg/ml
LC (lethal concentration) [3]: 1.0/1.0 μg/ml
MIC [3]: 1.0/1.0 μg/ml
LC (lethal concentration) [4]: 0.25 µg/mL
MIC [4]: 0.1 µg/mL
LC (lethal concentration) (Xanthomonas vesicatoria [5]): 0.25 µg/mL
MIC (Xanthomonas vesicatoria [5]): 0.1 µg/mL
LC (lethal concentration) (Pseudomonas corrugata [6]): 0.5 µg/mL
MIC (Pseudomonas corrugata [6]): 0.25 µg/mL

KRRKLAFRAFRFALKAVLKK-NH2 [SP13-13]
LC (lethal concentration) [1]: >10/>10 μg/ml
MIC [1]: >10/>10 μg/ml
LC (lethal concentration) [2]: 0.5/0.5 μg/ml
MIC [2]: 0.5/0.5 μg/ml
LC (lethal concentration) [3]: 5.0 µg/mL
MIC [3]: 2.5 µg/mL
LC (lethal concentration) [4]: 2.5 µg/mL
MIC [4]: 0.5 µg/mL
LC (lethal concentration) (Xanthomonas vesicatoria [5]): 0.5 µg/mL
MIC (Xanthomonas vesicatoria [5]): 0.25 µg/mL
LC (lethal concentration) (Pseudomonas corrugata [6]): 1.0 µg/mL
MIC (Pseudomonas corrugata [6]): 0.25 µg/mL

KRRLIARILRLAIRALVKKR-NH2 [SP13-1]
LC (lethal concentration) [1]: >10//>10 μg/ml
MIC [1]: >10//>10 μg/ml
LC (lethal concentration) [2]: 2.5 µg/mL
MIC [2]: 1.0 µg/mL
LC (lethal concentration) [3]: 5.0 µg/mL and > 10 µg/mL
MIC [3]: 1.0 µg/mL
LC (lethal concentration) [4]: 2.5 µg/mL
MIC [4]: 0.5 µg/mL
LC (lethal concentration) (Xanthomonas vesicatoria [5]): 1.0 µg/mL
MIC (Xanthomonas vesicatoria [5]): 0.5 µg/mL
LC (lethal concentration) (Pseudomonas corrugata [6]): 2.5/2.5 μg/ml
MIC (Pseudomonas corrugata [6]): 2.5/2.5 μg/ml

KRRKLIKILKLIIKLIRKKR-NH2 [SP13-6]
LC (lethal concentration) [1]: >10/>10 μg/ml
MIC [1]: >10/>10 μg/ml
LC (lethal concentration) [2]: 2.5 µg/mL
MIC [2]: 1.0 µg/mL
LC (lethal concentration) [3]: 5.0 µg/mL
MIC [3]: 2.5 µg/mL
LC (lethal concentration) [4]: 1.0 µg/mL
MIC [4]: 0.1 µg/mL
LC (lethal concentration) (Xanthomonas vesicatoria [5]): 0.5 µg/mL
MIC (Xanthomonas vesicatoria [5]): 0.1 µg/mL
MIC (Pseudomonas corrugata [6]): 2.5 µg/mL

KRRLILRILRLAIRALVKKR-NH2 [SP13-2]
LC (lethal concentration) [1]: >10/>10 μg/ml
MIC [1]: >10/>10 μg/ml
LC (lethal concentration) [2]: 10 µg/mL
MIC [2]: 5.0 µg/mL
LC (lethal concentration) [3]: 10/>10 μg/ml
MIC [3]: 10/>10 μg/ml
LC (lethal concentration) [4]: 1.0 µg/mL
MIC [4]: 0.25 µg/mL
LC (lethal concentration) (Xanthomonas vesicatoria [5]): 0.5 µg/mL
MIC (Xanthomonas vesicatoria [5]): 0.25 µg/mL
LC (lethal concentration) (Pseudomonas corrugata [6]): 5.0/5.0 μg/ml
MIC (Pseudomonas corrugata [6]): 5.0/5.0 μg/ml
